Source: US20250000987A1, “RETINOIC ACID COMPOUND, PHARMACEUTICAL COMPOSITION THEREOF AND USE THEREOF” (Mastery Biotech CO., LTD., priority 2022, published 2025)

Experiments:
SARS-COV-2 = conditions: Example 2; 0.35 mg/kg intranasally twice daily, 3-day treatment; versus isotretinoin and liposome-encapsulated isotretinoin; FIG. 3
Text: Golden Syrian hamsters (aged 5-6 weeks old and having an average weight of about 100 g) were obtained from the National Laboratory Animal Center (Taipei, Taiwan). The hamsters were housed in an animal room under specific-pathogen-free (SPF) conditions commonly applied in the art. Furthermore, water and feed were provided ad libitum for all the hamsters.
The hamsters were infected with SARS-COV-2 (obtained from P3 Lab, the Genomics Research Center, Academia Sinica; WuHan wild type) in phosphate buffered saline (PBS) through intranasal inoculation at 1×10^4 plaque-forming units (PFU) on 12:00 PM so as to establish a SARS-COV-2 animal model.
The infected hamsters obtained as mentioned above were divided into the following four groups (n=5 per group): a control group (abbreviated as “Control”), two comparative groups (respectively abbreviated as “Comparative_1” and “Comparative_2”) and one experimental group (abbreviated as “Experimental_1”). […]
After the 3-day treatment, the hamsters were sacrificed, and the lungs thereof were collected for live viral load measurement by TCID50 assay in Vero E6 cells. The virus titer was determined in terms of the 50% tissue culture infectious dose (TCID50) using the Reed-Muench method. […]
The experimental data were analyzed by Tukey's test so as to evaluate the differences between the groups. […]

SARS-COV-2 PLpro = SARS-COV-2 PLpro (Severe acute respiratory syndrome coronavirus 2, UniProt P0DTD1); type: biochemical

SMILES: CC1=C(/C=C/C(C)=C/C=C/C(C)=C\C(=O)NCCCO[C@@H]2O[C@H](CO)[C@H](O)[C@H](O)[C@H]2O)C(C)(C)CCC1 [Galactose-modified isotretinoin, (2Z,4E,6E,8E)-3,7-dimethyl-N-(3-(((2R,3R,4S,5R,6R)-3,4,5-trihydroxy-6-(hydroxymethyl)tetrahydro-2H-pyran-2-yl)oxy)propyl)-9-(2,6,6-trimethylcyclohex-1-en-1-yl) nona-2,4,6,8-tetraenamide]
- TCID50 (lung virus titer) (SARS-COV-2): significantly lower
- Inhibition percentage (%) (SARS-COV-2 PLpro; Example 1, 50 μM inhibiting agent, PLpro 0.9 μM, preincubation 30 minutes, 30° C., 300 seconds, mean±standard deviation): 34.21 ± 0.17%
- inhibiting the enzymatic activity of PLpro, comparison in words (SARS-COV-2 PLpro; versus isotretinoin or the individual components, FIG. 2, FIG. 11): more effective than isotretinoin only
